# Values of other authors, collected in patent US6251886A, “Methods of using temozolomide in the treatment of cancers” (priority 1999, dated 2001).
# Entries after “also recorded” stand apart in the source; their conditions may differ. Like-named read-outs stand apart in the source and are kept apart here.
# How the values were obtained:
# [1] = system: D456-MG human glioma xenograft
# [2] = system: brain tumors; conditions: clinical trials, vs adjuvant BCNU
# [3] = known property
# [4] = system: advanced melanoma; conditions: Phase II, 60 patients with advanced melanoma
# [5] = common, but tolerable
# [6] = systemic temozolomide, rat
# [7] = system: advanced melanoma; conditions: Phase I, patients with advanced melanoma
# [8] = systemic temozolomide, Rhesus monkeys
# [9] = not given; remark: listed apart in the source
# [10] = oral therapy
# [11] = system: human CNS xenografts; conditions: s.c. in athymic nude mice
# [12] = system: murine tumors; conditions: mouse, in vivo
# [13] = clinical trials
# [14] = system: Mer- human MG xenograft
# [15] = system: leptomeningeal medulloblastoma and pineoblastoma; conditions: i.t., Phase I
# [16] = Phase I, single-dose i.v. and oral
smiles,measurement,setting,value
"O=NN(CCCl)C(=O)NCCCl [BCNU, 1,3-bis(2-chloroethyl)-1-nitrosourea]",resistance of D456 to BCNU,[1],resistant
CNNCc1ccc(C(=O)NC(C)C)cc1 [procarbazine],activity against brain tumors,[2],results comparable to adjuvant BCNU
"Cn1nnc2c(C(N)=O)ncn2c1=O [temozolomide, 3,4-dihydro-3-methyl-4-oxoimidazo-[5,1-d]-1,2,3,4-tetrazin-8-carboximide]",solubility (in words),[3],marked insolubility; also recorded: poor solubility
same,effective concentration in vitro,,0.1 mM
same,clinical response,[4],21%
same,side effect,[5],nausea and vomiting
same,penetration into the CSF (CSF to plasma AUC zero to infinity ratio),[6],41% to 44
same,clinical responses,[7],17%
same,penetration into the CSF (CSF to plasma AUC zero to infinity ratio),[8],29.8%
same,dose-limiting toxicity,"[9]; Phase I and II, five-day regimen",dose-limiting myelosuppression; also recorded: dose-limiting stem cell toxicity
same,anti-neoplastic activity,"[9]; Phase I and II, five-day regimen, including high-grade glioma",intriguing anti-neoplastic activity
same,antineoplastic activity,[9]; [16],trivial antineoplastic activity
same,dose-limiting toxicity,[9]; [16],dose-limiting myelosuppression
same,peak serum concentrations,[10],approximately 10 mg/L
same,activity against human CNS xenografts,[11],activity of temozolomide against a series of human CNS xenografts
same,activity against murine tumors,[12],activity against a spectrum of murine tumors
NC(=O)c1ncn2c(=O)n(CCCl)nnc12 [mitozolomide],thrombocytopenia,[13],severe and unpredictable thrombocytopenia
Cn1nnc2c(C(N)=O)ncn2c1=O [microcrystalline temozolomide],resistance of D456 to BCNU,[1],BCNU-resistant
same,sensitivity to BCNU,[14],BCNU-sensitive
N[C@@H](Cc1ccc(N(CCCl)CCCl)cc1)C(=O)O [melphalan],activity in patients,[15],activity has been seen in patients with leptomeningeal medulloblastoma and pineoblastoma
